# Measured values: patent US8003602B2 (priority 2006, dated 2011)
# Structures can show the parent of a compound that is named as a salt.
# Assays:
# [1] = test system: Enterococcus faecium ATCC 47077; assay: Kidney infection model; assay type: in vivo, Balb/C mice
# From the text: (§1) The in-vivo potency was established by protection dose (PD) determinations of the compound PM181104 for its antibiotic activity in three animal models using either male or female Balb/C mice.
# (§2) The models used were the general purpose efficacy testing models and organ/tissue specific efficacy testing models. The general purpose efficacy testing models used were systemic infection model (septicemia), and localized infection model (neutropenic thigh model). The Organ/Tissue specific infection models used for efficacy testing were kidney, lung infection, and skin abscess model.
# 0.2 ml of 2% λ Carrageenan was administered intravenously to Balb/C mice 7 days prior to infection. Overnight grown log phase culture of Enterococcus faecium ATCC 47077 adjusted to approximately 10^9 cfu/ml, was injected intravenously to the mice at a volume of 0.2 ml. PM181104 solution, prepared in cremophor-ethanol formulation as described in example 14, was administered intravenously to the mice at 4 hours, 24 hours and 48 hours post-infection. At 72 hours post infection, the animals were sacrificed and kidneys were harvested to determine the bacterial load. […] Linezolid (manufactured by Glenmark Pharma Ltd; Batch no: K2005028) at 25 mg/kg and Vancomycin hydrochloride (manufactured by HiMedia; Catalogue no: RM217-500 mg; Lot no: 06-0350) at 150 mg/kg dose.
# S. aureus E-710 [2] = assay: Lung infection model; assay type: in vivo, Balb/C mice
# From the text: as §1, §2
# Balb/C mice were rendered neutropenic by intraperitoneally administering 200 mg/kg cyclophosphamide four days and two days prior to infection. On the day of infection, the mice were anesthetized and infected with S. aureus E-710 log-phase culture suspension having bacterial density of approximately 10^6 to 10^7 cfu/ml. 24 and 36 hours post infection the first and second respective dose of drug was administered intravenously. 48 hours post infection, the animals were humanely euthanized and their lungs were aseptically collected to determine the viable count of bacteria. In this model, PM181104 was tested at 5 mg/kg dose prepared in cremophor-ethanol formulation as described in example 14. Two standard antibiotics viz. Linezolid (80 mg/kg single dose at 24 hours post infection) and Vancomycin (110 mg/kg, two doses at 24 and 48 hours post infection) were used as positive controls.
# [3] = test system: methicillin resistant Staphylococcus aureus E710 (MRSA); assay: Systemic infection model (septicemia); assay type: in vivo, Balb/C mice; conditions: mice infected intraperitoneally with MRSA E710, administered intravenously immediately after infection
# From the text: as §1, §2
# The animals were infected intraperitoneally with ˜10^8 to 10^9 cfu of an overnight grown culture of methicillin resistant Staphylococcus aureus E710 (MRSA), suspended in normal saline (0.85% sodium chloride). PM181104 solution was prepared in cremophor-ethanol formulation as described in example 14. The solution was administered intravenously at 5 mg, 2.5 mg and 1.25 mg/kg doses, immediately after infection. Each experimental group consisted of ten animals.
# S. aureus E-710 [4] = assay: Neutropenic thigh model; assay type: in vivo, Balb/C mice; conditions: Linezolid at 25 mg/kg dose
# From the text: as §1, §2
# Each experimental group consisted of six animals. PM181104 was prepared in cremophor-ethanol formulation as described in example 14.
# [5] = test system: methicillin resistant S. aureus E710 (MRSA); assay type: in vivo, Balb/C mice; conditions: Linezolid at 50 mg/kg dose
# From the text: as §1, §2
# Balb/C mice were infected subcutaneously with approximately 10^8 cfu of an overnight grown culture of methicillin resistant S. aureus E710 (MRSA). The bacteria were suspended in 1:1 mixture of 2% cytodex beads in normal saline (0.85% sodium chloride). PM181104 was prepared in cremophor-ethanol formulation as described in example 14. The solution was administered intravenously at 2.5 mg, 5 mg and 10 mg/kg doses, two hours post infection. Each experimental group consisted of six animals. Following abscess formation the animals were sacrificed and abscess harvested to determine the viable counts. […] Linezolid (manufactured by Glenmark Pharma Ltd; Batch no: K2005028) at 50 mg/kg dose.
# E. faecalis ATCC BAA 472 = assay: MIC, Macro-broth dilution method; assay type: cell-based
# From the text: (§3) The in-vitro potency was established by minimum inhibitory concentration (MIC) determinations of the compound PM181104 against bacterial strains, by using the Macro-broth dilution method as per National Committee for Clinical Laboratory Standards (2000) guidelines [Journal of Anti-microbial Chemotherapy, 2002, 50, 125-128 (Cross Reference 8: Methods for Dilution Antimicrobial Susceptibility Tests for Bacteria that Grow Aerobically-Fifth Edition: Approved Standard M7-A5. NCCLS, Wayne, Pa., USA)]. Unless stated otherwise, Mueller-Hinton broth was used as nutrient medium for the assay. Linezolid (manufactured by Glenmark Pharma Ltd; Batch no: K2005028) was used as known standard in all in-vitro experiments. For preparation of the stock solution the compound PM181104 was dissolved in chloroform (5% of the total required volume) and diluted using methanol (95% of the total required volume).
# S. aureus (E710) = assay: MIC, Macro-broth dilution method; assay type: cell-based, Staphylococcus aureus; conditions: S. aureus MRSA E710
# From the text: as §3
# E. faecium ATCC 51559 = assay type: cell-based, Enterococcus faecium
# From the text: as §3
# E. faecium (R-2) = assay type: cell-based, Enterococcus faecium; conditions: E. faecium R-2 (VRE)
# From the text: as §3
# E. faecalis, ATCC 51299 = assay type: cell-based
# From the text: as §3
# E. faecalis ATCC 51575 = assay type: cell-based
# From the text: as §3
# [6] = test system: Staphylococcus aureus subsp. aureus ATCC 33591; assay type: cell-based; conditions: S. aureus MRSA ATCC 33591
# From the text: as §3
smiles,measurement,setting,value
"CC(=O)NC[C@H]1CN(c2ccc(N3CCOCC3)c(F)c2)C(=O)O1 [Linezolid, reference compound]","decrease in bacterial count in kidneys, comparison with PM181104",[1]; Linezolid at 25 mg/kg,comparable
same,"activity profile in lung infection, comparison with PM181104",S. aureus E-710 [2]; Linezolid 80 mg/kg single dose at 24 hours post infection,comparable
same,PD100,[3],25 mg/kg
same,"decrease in viable counts in thigh tissue, comparison with PM181104",S. aureus E-710 [4],comparable
same,"decrease in bacterial count in abscess, comparison with PM181104",[5],comparable
"CN[C@H](CC(C)C)C(=O)N[C@H]1C(=O)N[C@@H](CC(N)=O)C(=O)N[C@H]2C(=O)N[C@H]3C(=O)N[C@H](C(=O)N[C@H](C(=O)O)c4cc(O)cc(O)c4-c4cc3ccc4O)[C@H](O)c3ccc(c(Cl)c3)Oc3cc2cc(c3O[C@@H]2O[C@H](CO)[C@@H](O)[C@H](O)[C@H]2O[C@H]2C[C@](C)(N)[C@H](O)[C@H](C)O2)Oc2ccc(cc2Cl)[C@H]1O [Vancomycin hydrochloride, reference compound]","decrease in bacterial count in kidneys, comparison with PM181104",[1]; Vancomycin hydrochloride at 150 mg/kg dose,comparable
same,activity profile in lung infection,"S. aureus E-710 [2]; Vancomycin 110 mg/kg, two doses at 24 and 48 hours post infection",bactericidal profile
C=C(NC(=O)C(=C)NC(=O)C1CCCN1C(=O)c1nc(-c2ccc(-c3nc(C(=O)NC(=C)C(=O)NC(C)C(N)=O)cs3)c(-c3csc(C4Cc5nc(cs5)C(=O)NC(Cc5ccccc5)C5=NC(CS5)C(=O)NC(Cc5ccc(OC(=O)c6cccnc6)cc5)C(=O)N5CCCC5c5nc(cs5)C(=O)N4)n3)n2)oc1C)C(N)=O (stereo not shown) [Nicotinic Acid Ester Derivative of PM181104],MIC,E. faecalis ATCC BAA 472,0.312 µg/mL
same,MIC,S. aureus (E710),>10 µg/mL
same,MIC,E. faecium ATCC 51559,0.156 µg/mL
same,MIC,E. faecium (R-2),0.312 µg/mL
same,MIC,"E. faecalis, ATCC 51299",0.312 µg/mL
same,MIC,E. faecalis ATCC 51575,0.312 µg/mL
same,MIC,[6],>10 µg/mL
C=C(NC(=O)C(=C)NC(=O)C1CCCN1C(=O)c1nc(-c2ccc(-c3nc(C(=O)NC(=C)C(=O)NC(C)C(N)=O)cs3)c(-c3csc(C4Cc5nc(cs5)C(=O)NC(Cc5ccccc5)C5=NC(CS5)C(=O)NC(Cc5ccc(OC(=O)CCC)cc5)C(=O)N5CCCC5c5nc(cs5)C(=O)N4)n3)n2)oc1C)C(N)=O (stereo not shown) [Butyric Acid Ester Derivative of PM181104],MIC,E. faecium (R-2),2.5 µg/mL
C=C(NC(=O)C(=C)NC(=O)C1CCCN1C(=O)c1nc(-c2ccc(-c3nc(C(=O)NC(=C)C(=O)NC(C)C(N)=O)cs3)c(-c3csc(C4Cc5nc(cs5)C(=O)NC(Cc5ccccc5)C5=NC(CS5)C(=O)NC(Cc5ccc(OC(=O)CCCCCCCCCCCCCCCCC)cc5)C(=O)N5CCCC5c5nc(cs5)C(=O)N4)n3)n2)oc1C)C(N)=O (stereo not shown) [Stearic Acid Ester Derivative of PM181104],MIC,E. faecium (R-2),1.25 µg/mL
